The values below come from patent US8008487B2, “Substituted thieno[2,3-D]pyrimidines as fungicides” (priority 2004, dated 2011).

Holding throughout (format): in vivo
One assay deals with Magnaporthe grisea. Kind of assay: whole plant or invertebrate. Particulars: Pyricularia oryzae, in Oryza sativa, foliar, 24 h, read-out: PYRIOR percent control of disease, 200 ppm on foliage, rice, one-day protectant test.
Assay [1] concerns Puccinia recondita tritici. Briefly: Leaf Rust of Wheat (PUCCRT), whole-plant fungicide test. The following applies: Puccinia recondita, 24 h, one-day protectant test, read-out: PUCCRT percent control of disease; for pest or weed control at 200 ppm: foliar, 200 ppm on foliage; for pest or weed control at 100 ppm: 100 ppm (footnote a).
The test system of the next assay is Colletotricum lagenarium. Briefly: Cucumber Anthracnose (COLLLA), whole-plant fungicide test. Particulars: Cucumis sativus, 24 h, one-day protectant test, read-out: COLLLA percent control of disease; for pest or weed control at 200 ppm: foliar, 200 ppm on foliage; for pest or weed control at 100 ppm: 100 ppm (footnote a).
A further assay has as its system Cochliobolus sativus. Kind of assay: Spot Blotch of Wheat (COCHSA), whole-plant fungicide test. The following applies: Bipolaris sorokiniana, foliar, 24 h, 200 ppm on foliage, one-day protectant test, read-out: COCHSA percent control of disease. The method, then:
The activity of the compounds as effective fungicides was determined by applying the compounds to plants and observing control of fungal disease. The compounds were formulated at 200 ppm in 10 vol. percent acetone plus 90 vol. percent Triton X water (deionized water 99.99 wt. percent+0.01 wt. percent Triton X100), giving a “formulated test compound.” In a few cases, compounds were formulated at 100, 75 or 8.3 ppm rather than 200 ppm in 10 vol. percent acetone plus 90 vol. percent Triton X water (deionized water 99.99 wt. percent+0.01 wt. percent Triton X100), giving a ‘formulated test compound’. The compounds were tested for ability to control plant diseases in a 1-day protectant test (1DP) or a 2-day curative test (2DC). Formulated test compounds were applied to plants using a turn table sprayer fitted with two opposing air atomization nozzles which delivered approximately 1500 L/ha of spray volume. Plants were inoculated with spores of the fungus the next day (1DP), then incubated in an environment conducive to disease development. In a few cases, the compounds were tested for ability to control plant disease in a two-day curative test. Plants were inoculated with spores of the fungus two days prior to compound application, and incubated in an environment conducive to disease development both before and after compound application (2DC). For all types of tests, disease severity was evaluated 4 to 28 days later, depending on the speed of disease development.
Each pot contained 3-8 seedlings. These plants were sprayed until wet with the formulated test compound. On the following day, the leaves were inoculated with an aqueous spore suspension of Cochliobolus sativus and the plants were kept in high humidity for one to two days to permit spores to germinate and infect the leaf. The plants were then transferred to a greenhouse until disease developed on untreated control plants.
The following table presents the activity of typical compounds of the present invention when evaluated in these experiments. The effectiveness of the test compounds in controlling disease was determined by assessing the severity of disease on treated plants, then converting the severity to percent control based on the level of disease on untreated, inoculated plants.
TABLE 4: Activity of compounds as fungicides. Data are the level at which the given disease was controlled when the given compound was applied to the foliage of the plant at 200 ppm. In a few cases (noted in the table) the compound was applied to the plant at 100, 75 or 8.3 ppm. The plant was inoculated with the fungus one day after treatment. In a few cases (noted in the table) the plant was inoculated with the fungus two days before treatment.

For a further assay, the system named is Phytophthora infestans. Briefly: whole plant or invertebrate. The following applies: Phytophthora infestans, in Solanum lycopersicum, 24 h; for pest or weed control at 200 ppm: foliar, read-out: PHYTIN percent control of disease, 200 ppm on foliage, tomato, one-day protectant test; for pest or weed control at 100 ppm: read-out: PHYTIN percent control of disease, 100 ppm (footnote a), tomato, one-day protectant test.

The subject of the next assay is Erysiphe cichoracaerum. Briefly: Cucumber Powdery Mildew (ERYSCI), whole-plant fungicide test. Particulars: Erysiphe, foliar, 24 h, 200 ppm on foliage, one-day protectant test, read-out: ERYSCI percent control of disease.
The test system of another assay is Leptosphaeria nodorum. Briefly: Glume Blotch of Wheat (LEPTNO), whole-plant fungicide test. Particulars: Parastagonospora nodorum, foliar, 24 h, 200 ppm on foliage, one-day protectant test, read-out: LEPTNO percent control of disease.
Another assay deals with Septoria tritici. Kind of assay: Speckled Leaf Blotch of Wheat (SEPTTR), whole-plant fungicide test. Particulars: Zymoseptoria tritici, foliar, 24 h, 200 ppm on foliage, one-day protectant test, read-out: SEPTTR percent control of disease.
In assay [2] the test system is Erysiphe graminis f. sp. tritici. Briefly: Powdery Mildew of Wheat (ERYSGT), whole-plant fungicide test. The following applies: Blumeria graminis, 24 h, 100 ppm (footnote a), one-day protectant test, read-out: ERYSGT percent control of disease.

As for `CCOc1csc2ncnc(NC(C)c3ccc(OC)nc3)c12` (stereo not shown) [Compound 46], the pest or weed control at 200 ppm lay in the range of 80 to 100% in the assay with Magnaporthe grisea; 80 to 100% in [1]; 0 to 49% in the assay on Colletotricum lagenarium; 0 to 49% in the assay on Cochliobolus sativus; 0 to 49% with Phytophthora infestans; 50 to 79% in the assay with Erysiphe cichoracaerum. Further, in the assay on Leptosphaeria nodorum, the pest or weed control at 200 ppm lay within 50 to 79%.

Turning to `COc1ccc(C(C)Nc2ncnc3sc([N+](=O)[O-])cc23)cc1` (stereo not shown) [Compound 47, [1-(4-Methoxyphenyl)ethyl]-(6-nitrothieno[2,3-d]pyrimidin-4-yl)amine], the pest or weed control at 200 ppm in the assay with Magnaporthe grisea is 80 to 100%; in assay [1] it was 80 to 100%; in the assay on Colletotricum lagenarium, 0 to 49%; in the assay with Cochliobolus sativus, 0 to 49%; with Phytophthora infestans it was 0 to 49%; in the assay on Erysiphe cichoracaerum, 0 to 49%. For the same compound, the pest or weed control at 200 ppm with Leptosphaeria nodorum was in the range of 50 to 79%.

Regarding `COc1ccc(C(C)Nc2ncnc3sc(Br)cc23)cc1` (stereo not shown) [Compound 48, (6-Bromothieno[2,3-d]pyrimidin-4-yl)-[1-(4-methoxyphenyl)ethyl]amine], the pest or weed control at 200 ppm in the assay on Magnaporthe grisea was 0 to 49%; in assay [1], 0 to 49%; in the assay with Colletotricum lagenarium, 0 to 49%; with Cochliobolus sativus it was 80 to 100%; in the assay on Phytophthora infestans it was 0 to 49%; with Erysiphe cichoracaerum it was 0 to 49%. Also, the pest or weed control at 200 ppm in the assay on Leptosphaeria nodorum fell in the range of 0 to 49%.

On to `CCOC(=O)c1sc2ncnc(NC(C)c3ccc(OC)cc3)c2c1OC` (stereo not shown) [Compound 51, 5-Methoxy-4-[1-(4-methoxyphenyl)ethylamino]thieno[2,3-d]pyrimidine-6-carboxylic Acid Ethyl Ester], for which the pest or weed control at 200 ppm (in assay [1]; with Cochliobolus sativus; with Leptosphaeria nodorum; in the assay on Septoria tritici) was 0 to 49% each time.

`COc1ccc(OCC(C)Nc2ncnc3scc(Cl)c23)cn1` (stereo not shown) [Compound 53]: the pest or weed control at 200 ppm in the assay on Magnaporthe grisea was in the range of 50 to 79%; in assay [1], 80 to 100%; in the assay on Colletotricum lagenarium, 0 to 49%; in the assay with Cochliobolus sativus it was 50 to 79%; in the assay on Phytophthora infestans, 0 to 49%; in the assay with Leptosphaeria nodorum it was 0 to 49%. Besides, the pest or weed control at 200 ppm with Septoria tritici was in the range of 50 to 79%.

Regarding `CC(Nc1ncnc2scc(Cl)c12)c1cnc(OCC(F)(F)F)nc1` (stereo not shown) [Compound 54], the pest or weed control at 200 ppm lay in the range of 80 to 100% with Magnaporthe grisea; 80 to 100% in assay [1]; 0 to 49% in the assay with Colletotricum lagenarium; 0 to 49% in the assay with Cochliobolus sativus; 80 to 100% in the assay on Phytophthora infestans; 50 to 79% with Leptosphaeria nodorum. For the same compound, the pest or weed control at 200 ppm with Septoria tritici lay in the range of 50 to 79%.

In the case of `COc1ncc(C(C)Nc2ncnc3scc(Cl)c23)cn1` (stereo not shown) [Compound 55], the pest or weed control at 200 ppm lay in the range of 50 to 79% in the assay with Magnaporthe grisea; 80 to 100% in [1]; 0 to 49% with Colletotricum lagenarium; 0 to 49% in the assay on Cochliobolus sativus; 80 to 100% with Phytophthora infestans; 50 to 79% in the assay on Leptosphaeria nodorum. Besides, the pest or weed control at 200 ppm in the assay on Septoria tritici was in the range of 80 to 100%.

`Clc1csc2ncnc(N3CCCC3c3cccnc3)c12` (stereo not shown) [Compound 56]: the pest or weed control at 200 ppm with Magnaporthe grisea fell in the range of 0 to 49%; in assay [1] it was 50 to 79%; in the assay with Colletotricum lagenarium, 0 to 49%; with Cochliobolus sativus, 0 to 49%; with Phytophthora infestans, 0 to 49%; in the assay with Erysiphe cichoracaerum, 0 to 49%. In addition, the pest or weed control at 200 ppm in the assay with Leptosphaeria nodorum fell in the range of 0 to 49%.

`CC(COc1cccc(Cl)n1)Nc1ncnc2scc(Cl)c12` (stereo not shown) [Compound 57]: the pest or weed control at 200 ppm with Magnaporthe grisea was 80 to 100%; in assay [1] it was 80 to 100%; in the assay with Colletotricum lagenarium, 0 to 49%; in the assay on Cochliobolus sativus, 0 to 49%; with Phytophthora infestans, 0 to 49%; in the assay with Erysiphe cichoracaerum it was 50 to 79%. In addition, the pest or weed control at 200 ppm was 0 to 49% in the assay on Leptosphaeria nodorum and 80 to 100% in the assay with Septoria tritici.

For `CC(Nc1ncnc2scc(Cl)c12)c1ccc(NC=O)cc1` (stereo not shown) [Compound 58], the pest or weed control at 200 ppm in the assay with Magnaporthe grisea was 80 to 100%; in assay [1] it was 80 to 100%; in the assay with Colletotricum lagenarium, 50 to 79%; in the assay on Cochliobolus sativus, 0 to 49%; in the assay with Phytophthora infestans, 0 to 49%; in the assay on Erysiphe cichoracaerum, 0 to 49%. Also, the pest or weed control at 200 ppm in the assay on Leptosphaeria nodorum fell in the range of 0 to 49%; in the assay on Septoria tritici it was 50 to 79%.

With `CC(=O)Nc1ccc(C(C)Nc2ncnc3scc(Cl)c23)cc1` (stereo not shown) [Compound 59], the pest or weed control at 200 ppm in the assay with Magnaporthe grisea is 80 to 100%; in [1], 80 to 100%; with Colletotricum lagenarium, 0 to 49%; with Cochliobolus sativus it was 0 to 49%; in the assay with Phytophthora infestans, 0 to 49%; with Erysiphe cichoracaerum it was 50 to 79%. Besides, the pest or weed control at 200 ppm in the assay with Leptosphaeria nodorum was 0 to 49%; with Septoria tritici, 50 to 79%.

Consider `CC(Nc1ncnc2scc(Br)c12)c1ccc(F)nc1` (stereo not shown) [Compound 60], for which the pest or weed control at 200 ppm with Magnaporthe grisea was 80 to 100%; in [1], 80 to 100%; with Colletotricum lagenarium, 80 to 100%; with Cochliobolus sativus, 0 to 49%; in the assay with Phytophthora infestans, 0 to 49%; in the assay with Erysiphe cichoracaerum, 80 to 100%. For the same compound, the pest or weed control at 200 ppm in the assay with Leptosphaeria nodorum and with Septoria tritici was 0 to 49% throughout.

On to `CC(Nc1ncnc2scc(Cl)c12)c1ccc2c(c1)OCO2` (stereo not shown) [Compound 61], for which the pest or weed control at 200 ppm was in the range of 50 to 79% in the assay with Magnaporthe grisea; 80 to 100% in assay [1]; 0 to 49% in the assay with Colletotricum lagenarium; 50 to 79% in the assay with Cochliobolus sativus; 0 to 49% with Phytophthora infestans; 80 to 100% in the assay on Erysiphe cichoracaerum. For the same compound, the values for the pest or weed control at 200 ppm in the assay on Leptosphaeria nodorum and with Septoria tritici were 80 to 100% and 50 to 79%, respectively.

On to `COCC(Nc1ncnc2scc(Cl)c12)c1ccccc1` (stereo not shown) [Compound 62], for which the pest or weed control at 200 ppm in the assay with Magnaporthe grisea was 80 to 100%; in [1], 80 to 100%; in the assay with Colletotricum lagenarium it was 0 to 49%; in the assay with Cochliobolus sativus, 0 to 49%; in the assay with Phytophthora infestans, 0 to 49%; with Erysiphe cichoracaerum, 80 to 100%. In addition, the pest or weed control at 200 ppm with Leptosphaeria nodorum is 0 to 49%; in the assay on Septoria tritici it was 50 to 79%.

Take `COc1ccc(C(C)Nc2ncnc3scc(F)c23)cc1` (stereo not shown) [Compound 76, (5-Fluorothieno[2,3-d]pyrimidin-4-yl)-[1-(4-methoxyphenyl)ethyl]amine]: the pest or weed control at 100 ppm in [1] lay within 80 to 100%; with Colletotricum lagenarium, 50 to 79%; in the assay on Phytophthora infestans, 80 to 100%; in assay [2], 0 to 49%.

In the case of `COc1ccc(C(C)Nc2ncnc3scc(F)c23)cn1` (stereo not shown) [Compound 77], the pest or weed control at 100 ppm in assay [1] was in the range of 80 to 100%; in the assay on Colletotricum lagenarium, 50 to 79%; in the assay with Phytophthora infestans, 80 to 100%; in assay [2], 0 to 49%.
